Assays:
Assay in all cases: relative viability (nuclei count vs DMSO), 5 days (fraction); higher = more cells survive
Bortezomib + Foretinib = compound: CC(C)C[C@H](NC(=O)[C@H](Cc1ccccc1)NC(=O)c1cnccn1)B(O)O [Bortezomib] + COc1cc2c(Oc3ccc(NC(=O)C4(C(=O)Nc5ccc(F)cc5)CC4)cc3F)ccnc2cc1OCCCN1CCOCC1 [Foretinib] (partner 0.25 µM)
Method in brief: (§1)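 Cells from lung cancer lines were seeded into 1536-well plates and, one day later, dosed by pin tool. Treatments were either a single drug or a fixed dose of an anchor drug with five library-drug doses (not always all listed) in √10 steps. After 5 days, nuclei were stained in a one-step fixation (final 0.05% Triton X-100, 1% formaldehyde, 1 ug/ml Hoechst) and counted on 4× images, and relative viability is the treated-to-vehicle nuclei ratio, as the median of duplicate plates.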

Bortezomib + Decitabine = compound: CC(C)C[C@H](NC(=O)[C@H](Cc1ccccc1)NC(=O)c1cnccn1)B(O)O [Bortezomib] + Nc1ncn([C@H]2C[C@H](O)[C@@H](CO)O2)c(=O)n1 [Decitabine] (partner 2 µM)
Method in brief: as §1

[1] = compound: CC1=CC(=NN1)NC2=CC(=NC(=N2)/C=C/C3=CC=CC=C3)N4CCN(CC4)C + CC1(C)CCC(c2ccc(Cl)cc2)=C(CN2CCN(c3ccc(C(=O)NS(=O)(=O)c4ccc(N[C@H](CCN5CCOCC5)CSc5ccccc5)c(S(=O)(=O)C(F)(F)F)c4)cc3)CC2)C1 [Navitoclax] (partner 0.5 µM)
Method in brief: as §1

Obatoclax + Navitoclax = compound: COC1=CC(c2cc3ccccc3[nH]2)=N/C1=C\c1[nH]c(C)cc1C [Obatoclax] + CC1(C)CCC(c2ccc(Cl)cc2)=C(CN2CCN(c3ccc(C(=O)NS(=O)(=O)c4ccc(N[C@H](CCN5CCOCC5)CSc5ccccc5)c(S(=O)(=O)C(F)(F)F)c4)cc3)CC2)C1 [Navitoclax] (partner 0.5 µM)
Method in brief: as §1

| Cell Line | relative viability (Bortezomib + Foretinib; first compound 0.0002 µM) | relative viability (Bortezomib + Foretinib; first compound 0.000632 µM) | relative viability (Bortezomib + Foretinib; first compound 0.002 µM) | relative viability (Bortezomib + Foretinib; first compound 0.006325 µM) | relative viability (Bortezomib + Foretinib; first compound 0.02 µM) | relative viability (Bortezomib + Decitabine; first compound 0.0002 µM) | relative viability (Bortezomib + Decitabine; first compound 0.000632 µM) | relative viability (Bortezomib + Decitabine; first compound 0.002 µM) | relative viability (Bortezomib + Decitabine; first compound 0.006325 µM) | relative viability (Bortezomib + Decitabine; first compound 0.02 µM) | relative viability ([1]; first compound 0.08 µM) | relative viability ([1]; first compound 0.253 µM) | relative viability ([1]; first compound 0.8 µM) | relative viability ([1]; first compound 2.53 µM) | relative viability ([1]; first compound 8 µM) | relative viability (Obatoclax + Navitoclax; first compound 0.01 µM) | relative viability (Obatoclax + Navitoclax; first compound 0.03162 µM) | relative viability (Obatoclax + Navitoclax; first compound 0.1 µM) | relative viability (Obatoclax + Navitoclax; first compound 0.3162 µM) | relative viability (Obatoclax + Navitoclax; first compound 1 µM) |
| --- | --- | --- | --- | --- | --- | --- | --- | --- | --- | --- | --- | --- | --- | --- | --- | --- | --- | --- | --- | --- |
| RERF-LC-KJ | 0.944 | 0.886 | 0.929 | 0.761 | 0.221 | 0.663 | 0.707 | 0.531 | 0.226 | 0.219 | 1.05 | 1.01 | 0.764 | 0.361 | 0.189 | 1.04 | 0.845 | 0.729 | 0.875 | 0.319 |
| SK-LU-1 | 0.742 | 0.86 | 0.67 | 0.128 | 0.112 | 0.499 | 0.644 | 0.533 | 0.245 | 0.174 | 0.792 | 0.905 | 0.786 | 0.385 | 0.0813 | 0.753 | 0.871 | 0.424 | 0.222 | 0.216 |
| SK-MES-1 | 1.01 | 0.946 | 0.967 | 0.632 | 0.241 | 0.444 | 0.411 | 0.379 | 0.194 | 0.156 | 1.11 | 1.21 | 1.15 | 0.479 | 0.116 | 1.28 | 1.16 | 1.22 | 1.03 | 0.64 |
| SW 1573 | 0.943 | 0.907 | 1.02 | 0.327 | 0.0926 | 0.366 | 0.573 | 0.229 | 0.0617 | 0.0363 | 0.98 | 1.06 | 0.772 | 0.227 | 0.0461 | 1.04 | 0.788 | 0.989 | 0.937 | 0.267 |
| UMC-11 | 0.801 | 0.97 | 0.96 | 0.449 | 0.175 | 0.628 | 0.713 | 0.483 | 0.326 | 0.203 | 0.317 | 0.312 | 0.177 | 0.116 | 0.0909 | 0.315 | 0.311 | 0.316 | 0.299 | 0.111 |

Source: the supplement of paper PMC10307832
